Experimental findings from patent EP3154958B1, “PHOSPHATIDYLINOSITOL 3-KINASE INHIBITORS” (Gilead Sciences, Inc., priority 2014, dated 2015) are described below.

Holding throughout (format): biochemical
One assay has as its target T1, PI3Kγ (Homo sapiens, UniProt P48736).
T1 construct: made in house
The experiment in a line: TR-FRET enzymatic activity assay, PI3Kγ. The note with it: recombinant heterodimeric PI3Kγ 2 nM, 2× Km ATP, 30 minutes at 25°C. In short, it runs like this:
(§1)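 Enzymatic activity against the PI3K isoforms was measured using a time-resolved fluorescence resonance energy transfer (TR-FRET) assay.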

The target of a further assay is T2, PI3Kδ (Homo sapiens, UniProt O00329).
T2 construct: made in house
The experiment in a line: TR-FRET enzymatic activity assay, PI3Kδ. The note with it: recombinant heterodimeric PI3Kδ 25-50 pM, 2× Km ATP, 30 minutes at 25°C. An outline of the steps: as §1
(Time-resolved FRET reads energy transfer from a long-lived donor to a nearby acceptor.)

The next assay addresses T3, PI3Kβ (Homo sapiens, UniProt P42338).
T3 construct: made in house
The experiment in a line: TR-FRET enzymatic activity assay, PI3Kβ. Particulars: for IC50: recombinant heterodimeric PI3Kβ 25-50 pM, 2× Km ATP, 30 minutes at 25°C; for PI3Kγ/PI3Kβ ratio: ratio of IC50 values. An outline of the steps:
as §1

Structures are written as SMILES.

T2 sequence (O00329 whole entry): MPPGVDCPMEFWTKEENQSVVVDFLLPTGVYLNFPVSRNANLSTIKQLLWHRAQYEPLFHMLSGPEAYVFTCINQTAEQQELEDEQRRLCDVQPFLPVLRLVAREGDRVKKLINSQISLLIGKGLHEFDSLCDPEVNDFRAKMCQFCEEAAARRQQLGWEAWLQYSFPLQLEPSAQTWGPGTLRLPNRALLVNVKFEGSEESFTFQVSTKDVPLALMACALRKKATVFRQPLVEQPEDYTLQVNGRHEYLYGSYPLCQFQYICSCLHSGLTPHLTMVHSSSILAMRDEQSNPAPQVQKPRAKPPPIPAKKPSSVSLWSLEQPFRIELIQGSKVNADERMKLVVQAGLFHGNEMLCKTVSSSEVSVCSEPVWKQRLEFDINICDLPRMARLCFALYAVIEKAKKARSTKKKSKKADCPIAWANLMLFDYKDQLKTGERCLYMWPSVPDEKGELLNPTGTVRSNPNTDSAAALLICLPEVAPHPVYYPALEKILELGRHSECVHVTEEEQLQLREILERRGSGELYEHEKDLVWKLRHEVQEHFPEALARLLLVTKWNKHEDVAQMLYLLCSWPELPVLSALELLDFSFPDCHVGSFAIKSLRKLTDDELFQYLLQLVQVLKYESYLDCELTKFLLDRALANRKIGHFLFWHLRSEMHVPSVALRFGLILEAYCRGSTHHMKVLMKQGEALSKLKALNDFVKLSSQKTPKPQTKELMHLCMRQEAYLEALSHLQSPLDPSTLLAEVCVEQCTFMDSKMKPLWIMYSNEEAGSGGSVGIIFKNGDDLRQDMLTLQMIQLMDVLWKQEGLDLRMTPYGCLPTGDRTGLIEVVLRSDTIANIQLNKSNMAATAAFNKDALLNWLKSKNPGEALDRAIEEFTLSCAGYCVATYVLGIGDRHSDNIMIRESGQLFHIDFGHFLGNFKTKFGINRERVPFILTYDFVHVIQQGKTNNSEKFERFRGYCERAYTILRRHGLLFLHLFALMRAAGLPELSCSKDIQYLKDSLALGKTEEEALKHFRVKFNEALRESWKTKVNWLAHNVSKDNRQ
T2 sequence (P27986 whole entry partner): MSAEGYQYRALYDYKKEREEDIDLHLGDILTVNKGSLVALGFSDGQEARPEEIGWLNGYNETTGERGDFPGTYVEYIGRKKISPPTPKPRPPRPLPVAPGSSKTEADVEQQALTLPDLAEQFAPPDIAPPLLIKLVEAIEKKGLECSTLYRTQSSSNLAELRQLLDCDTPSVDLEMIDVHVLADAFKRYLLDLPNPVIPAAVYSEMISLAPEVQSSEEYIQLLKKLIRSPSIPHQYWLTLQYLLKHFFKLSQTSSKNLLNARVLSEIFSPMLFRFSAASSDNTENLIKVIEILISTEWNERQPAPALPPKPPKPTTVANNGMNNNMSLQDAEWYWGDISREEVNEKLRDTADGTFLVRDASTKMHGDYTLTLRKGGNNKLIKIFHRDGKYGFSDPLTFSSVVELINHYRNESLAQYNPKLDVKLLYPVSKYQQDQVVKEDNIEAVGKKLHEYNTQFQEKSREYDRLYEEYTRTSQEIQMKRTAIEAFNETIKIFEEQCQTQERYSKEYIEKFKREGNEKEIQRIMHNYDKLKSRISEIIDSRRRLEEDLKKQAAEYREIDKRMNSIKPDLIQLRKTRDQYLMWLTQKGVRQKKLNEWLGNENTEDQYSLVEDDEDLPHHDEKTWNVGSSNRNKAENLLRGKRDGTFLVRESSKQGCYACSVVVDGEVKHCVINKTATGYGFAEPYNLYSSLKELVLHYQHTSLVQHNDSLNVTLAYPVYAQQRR
T1 sequence (P48736 whole entry): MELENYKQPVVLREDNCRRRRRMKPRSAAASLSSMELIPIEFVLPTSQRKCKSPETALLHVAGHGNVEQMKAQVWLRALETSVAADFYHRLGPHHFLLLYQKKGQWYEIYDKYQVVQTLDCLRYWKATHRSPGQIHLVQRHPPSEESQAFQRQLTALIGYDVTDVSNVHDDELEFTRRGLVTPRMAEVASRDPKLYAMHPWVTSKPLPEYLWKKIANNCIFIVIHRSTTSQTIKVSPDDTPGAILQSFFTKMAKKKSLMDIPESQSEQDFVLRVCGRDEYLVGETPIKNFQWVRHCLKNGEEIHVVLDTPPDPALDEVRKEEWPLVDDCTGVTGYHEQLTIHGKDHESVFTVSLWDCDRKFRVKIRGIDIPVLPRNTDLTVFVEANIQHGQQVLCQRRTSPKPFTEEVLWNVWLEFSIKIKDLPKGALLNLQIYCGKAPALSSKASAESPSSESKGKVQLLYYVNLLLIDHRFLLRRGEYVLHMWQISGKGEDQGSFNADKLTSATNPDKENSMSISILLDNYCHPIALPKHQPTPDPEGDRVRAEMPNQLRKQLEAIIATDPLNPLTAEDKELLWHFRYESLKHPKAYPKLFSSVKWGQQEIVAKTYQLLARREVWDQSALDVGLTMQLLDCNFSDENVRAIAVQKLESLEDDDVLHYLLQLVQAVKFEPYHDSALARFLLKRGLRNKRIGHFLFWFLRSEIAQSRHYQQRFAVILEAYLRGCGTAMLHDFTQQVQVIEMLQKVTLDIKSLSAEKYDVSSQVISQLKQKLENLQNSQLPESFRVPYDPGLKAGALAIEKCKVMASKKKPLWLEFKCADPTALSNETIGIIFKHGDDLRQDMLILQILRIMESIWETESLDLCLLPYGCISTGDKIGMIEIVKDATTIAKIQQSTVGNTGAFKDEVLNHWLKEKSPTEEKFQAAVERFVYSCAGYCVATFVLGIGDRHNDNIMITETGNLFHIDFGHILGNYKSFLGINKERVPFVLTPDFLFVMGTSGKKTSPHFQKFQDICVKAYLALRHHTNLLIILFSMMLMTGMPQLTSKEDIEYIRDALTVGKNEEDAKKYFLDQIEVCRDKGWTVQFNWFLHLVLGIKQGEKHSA
T1 sequence (Q8WYR1 whole entry partner): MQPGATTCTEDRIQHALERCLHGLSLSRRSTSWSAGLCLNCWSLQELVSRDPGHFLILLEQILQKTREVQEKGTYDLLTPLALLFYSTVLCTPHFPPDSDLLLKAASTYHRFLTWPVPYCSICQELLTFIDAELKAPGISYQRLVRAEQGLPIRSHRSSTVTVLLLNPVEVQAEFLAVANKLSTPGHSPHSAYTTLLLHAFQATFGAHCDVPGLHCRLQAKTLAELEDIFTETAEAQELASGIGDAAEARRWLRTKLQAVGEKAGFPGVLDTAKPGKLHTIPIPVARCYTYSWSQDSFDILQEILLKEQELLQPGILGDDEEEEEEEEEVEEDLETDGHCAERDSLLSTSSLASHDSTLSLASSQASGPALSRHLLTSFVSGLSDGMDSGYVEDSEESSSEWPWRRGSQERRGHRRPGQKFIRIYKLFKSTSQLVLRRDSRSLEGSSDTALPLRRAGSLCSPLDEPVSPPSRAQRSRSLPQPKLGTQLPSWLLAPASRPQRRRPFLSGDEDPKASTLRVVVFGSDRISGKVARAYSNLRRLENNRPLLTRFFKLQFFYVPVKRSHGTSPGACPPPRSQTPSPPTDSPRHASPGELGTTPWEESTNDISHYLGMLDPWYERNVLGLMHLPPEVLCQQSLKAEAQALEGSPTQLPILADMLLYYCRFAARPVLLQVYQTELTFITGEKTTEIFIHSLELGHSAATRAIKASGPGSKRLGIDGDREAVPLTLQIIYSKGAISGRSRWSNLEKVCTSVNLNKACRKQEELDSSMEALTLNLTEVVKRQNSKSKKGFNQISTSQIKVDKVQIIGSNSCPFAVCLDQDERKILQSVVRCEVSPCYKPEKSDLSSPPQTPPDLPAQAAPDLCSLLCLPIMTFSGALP
T3 sequence (P42338 whole entry): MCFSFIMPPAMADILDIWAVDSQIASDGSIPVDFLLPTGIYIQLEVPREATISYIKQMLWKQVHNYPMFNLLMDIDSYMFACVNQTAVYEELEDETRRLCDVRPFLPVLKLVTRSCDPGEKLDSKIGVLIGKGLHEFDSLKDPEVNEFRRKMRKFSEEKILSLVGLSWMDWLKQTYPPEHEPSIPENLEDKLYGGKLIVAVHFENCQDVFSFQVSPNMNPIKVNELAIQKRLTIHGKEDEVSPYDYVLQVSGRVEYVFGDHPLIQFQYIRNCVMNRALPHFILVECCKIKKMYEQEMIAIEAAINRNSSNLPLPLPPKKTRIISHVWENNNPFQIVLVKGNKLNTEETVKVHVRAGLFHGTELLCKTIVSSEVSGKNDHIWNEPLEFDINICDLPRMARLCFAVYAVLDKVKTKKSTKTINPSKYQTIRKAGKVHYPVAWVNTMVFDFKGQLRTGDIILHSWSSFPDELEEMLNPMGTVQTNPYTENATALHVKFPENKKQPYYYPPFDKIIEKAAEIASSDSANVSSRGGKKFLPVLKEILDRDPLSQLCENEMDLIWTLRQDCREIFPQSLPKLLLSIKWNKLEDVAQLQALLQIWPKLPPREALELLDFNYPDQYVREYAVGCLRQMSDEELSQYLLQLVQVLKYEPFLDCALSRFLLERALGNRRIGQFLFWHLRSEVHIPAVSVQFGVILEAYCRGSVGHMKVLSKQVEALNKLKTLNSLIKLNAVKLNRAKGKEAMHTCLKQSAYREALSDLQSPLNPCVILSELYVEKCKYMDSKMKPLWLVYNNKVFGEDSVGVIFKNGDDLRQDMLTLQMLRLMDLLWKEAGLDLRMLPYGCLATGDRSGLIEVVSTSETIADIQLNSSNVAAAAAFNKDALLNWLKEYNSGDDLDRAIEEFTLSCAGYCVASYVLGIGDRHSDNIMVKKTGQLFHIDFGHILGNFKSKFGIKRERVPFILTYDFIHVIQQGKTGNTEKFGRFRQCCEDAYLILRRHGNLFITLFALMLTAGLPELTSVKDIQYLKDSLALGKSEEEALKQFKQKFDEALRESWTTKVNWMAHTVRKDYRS
T3 sequence (P27986 whole entry partner): as the sequence (P27986 whole entry partner) above

In the case of `CC(C)N1CCN(n2c([C@H](C)Nc3nc(N)nc(N)c3C#N)nc3cccc(Cl)c3c2=O)CC1` [Compound 88, (S)-2,4-diamino-6-((1-(5-chloro-3-(4-isopropylpiperazin-1-yl)-4-oxo-3,4-dihydroquinazolin-2-yl)ethyl)amino)pyrimidine-5-carbonitrile], the IC50 on PI3Kγ was determined as 5.8 µM; at PI3Kδ, 0.054 µM; on PI3Kβ, 0.12 µM.
For `C[C@H](Nc1nc(N)nc(N)c1Cl)c1nc2cccc(Cl)c2c(=O)n1N1CCN(CC(F)(F)F)CC1` [Compound 108, (S)-5-chloro-2-(1-((2,6-diamino-5-chloropyrimidin-4-yl)amino)ethyl)-3-(4-(2,2,2-trifluoroethyl)piperazin-1-yl)quinazolin-4(3H)-one] the same measures were above 10 µM, 0.17 µM and 6.1 µM.
As for `C[C@H](Nc1nc(N)nc(N)c1C#N)c1nc2c(F)ccc(Cl)c2c(=O)n1N1CCN(Cc2ccccc2)CC1` [Compound 116, (S)-2,4-diamino-6-((1-(3-(4-benzylpiperazin-1-yl)-5-chloro-8-fluoro-4-oxo-3,4-dihydroquinazolin-2-yl)ethyl)amino)pyrimidine-5-carbonitrile], the IC50 at PI3Kγ is 0.47 µM; on PI3Kδ, 0.015 µM; on PI3Kβ, 0.013 µM.
In the same order, the values of `C[C@H](Nc1nc(N)nc(N)c1C#N)c1nc2cccc(Cl)c2c(=O)n1N1CCN(CC(C)(C)C)CC1` [Compound 98, (S)-2,4-diamino-6-((1-(5-chloro-3-(4-neopentylpiperazin-1-yl)-4-oxo-3,4-dihydroquinazolin-2-yl)ethyl)amino)pyrimidine-5-carbonitrile] are 1.2 µM, 0.005 µM and 0.004 µM.
For `CC[C@H](Nc1ncnc2scnc12)c1nc2cccc(Cl)c2c(=O)n1N1CCNCC1` [Compound 80, (S)-5-chloro-3-(piperazin-1-yl)-2-(1-(thiazolo[5,4-d]pyrimidin-7-ylamino)propyl)quinazolin-4(3H)-one] the same measures were above 10 µM, 0.004 µM and 0.025 µM.
Take `C[C@H](Nc1nc(N)nc(N)c1C#N)c1nc2c(Cl)cc(F)cc2c(=O)n1N1CCNCC1` [Compound 126, (S)-2,4-diamino-6-((1-(8-chloro-6-fluoro-4-oxo-3-(piperazin-1-yl)-3,4-dihydroquinazolin-2-yl)ethyl)amino)pyrimidine-5-carbonitrile]: the IC50 was 4.9 µM at PI3Kγ, 0.004 µM at PI3Kδ and 0.005 µM on PI3Kβ.
As to `CCN1CCC(n2c([C@H](C)Nc3ncnc4[nH]cnc34)nc3cccc(Cl)c3c2=O)C1` (stereo partly drawn) [Compound 135, 2-((S)-1-((9H-purin-6-yl)amino)ethyl)-5-chloro-3-(1-ethylpyrrolidin-3-yl)quinazolin-4(3H)-one], the values for the IC50 at PI3Kγ, on PI3Kδ and at PI3Kβ were above 10 µM, 0.07 µM and 4.7 µM, respectively.
For `C[C@H](Nc1nc(N)nc(N)c1C#N)c1nc2cccc(Cl)c2c(=O)n1N1CCN(C)CC1` [Compound 125, (S)-2,4-diamino-6-((1-(5-chloro-3-(4-methylpiperazin-1-yl)-4-oxo-3,4-dihydroquinazolin-2-yl)ethyl)amino)pyrimidine-5-carbonitrile] the same measures were 0.35 µM, 0.006 µM and 0.005 µM.
Turning to `Cc1cccc2nc([C@H](C)Nc3ncnc(N)c3C#N)n(C3CCNCC3)c(=O)c12` [Compound 60, (S)-4-amino-6-((1-(5-methyl-4-oxo-3-(piperidin-4-yl)-3,4-dihydroquinazolin-2-yl)ethyl)amino)pyrimidine-5-carbonitrile], the IC50 on PI3Kγ is above 10 µM; at PI3Kδ it was 0.005 µM; at PI3Kβ, 0.13 µM.
For `CC[C@H](Nc1ncnc(N)c1C#N)c1nc2cccc(Cl)c2c(=O)n1N1CCNCC1` [Compound 79, (S)-4-amino-6-((1-(5-chloro-4-oxo-3-(piperazin-1-yl)-3,4-dihydroquinazolin-2-yl)propyl)amino)pyrimidine-5-carbonitrile], the values for the IC50 on PI3Kγ, at PI3Kδ and on PI3Kβ were above 10 µM, 0.007 µM and 0.078 µM, respectively.
Consider `C[C@H](Nc1ncnc(N)c1C#Cc1ccc(F)cn1)c1nc2cccc(Cl)c2c(=O)n1C1CNC1` [Compound 132, (S)-2-(1-((6-amino-5-((5-fluoropyridin-2-yl)ethynyl)pyrimidin-4-yl)amino)ethyl)-3-(azetidin-3-yl)-5-chloroquinazolin-4(3H)-one], for which the IC50 on PI3Kγ was above 10 µM; at PI3Kδ it was 0.25 µM; at PI3Kβ, 1 µM.
In the case of `Cc1nc(N)c(C(=O)N[C@@H](C)c2nc3cccc(Cl)c3c(=O)n2N2CCNCC2)nc1C` [Compound 59, (S)-3-amino-N-(1-(5-chloro-4-oxo-3-(piperazin-1-yl)-3,4-dihydroquinazolin-2-yl)ethyl)-5,6-dimethylpyrazine-2-carboxamide], the IC50 at PI3Kγ was above 10 µM; at PI3Kδ, 0.28 µM; on PI3Kβ, 0.073 µM.
For `CC[C@H](Nc1nc(N)nc(N)c1C#N)c1nc2cccc(Cl)c2c(=O)n1N1CCN(Cc2ccccc2)CC1` [Compound 94, (S)-2,4-diamino-6-((1-(3-(4-benzylpiperazin-1-yl)-5-chloro-4-oxo-3,4-dihydroquinazolin-2-yl)propyl)amino)pyrimidine-5-carbonitrile] the same measures were 2.9 µM, 0.032 µM and 0.056 µM.
For `Cc1nc(N)nc(N[C@@H](C)c2nc3cccc(Cl)c3c(=O)n2C2CCN(CC(F)(F)F)CC2)c1C#N` [Compound 106, (S)-2-amino-4-((1-(5-chloro-4-oxo-3-(1-(2,2,2-trifluoroethyl)piperidin-4-yl)-3,4-dihydroquinazolin-2-yl)ethyl)amino)-6-methylpyrimidine-5-carbonitrile] the same measures were 0.71 µM, 0.011 µM and 0.26 µM.
On to `C[C@H](Nc1ncnc(N)c1C#Cc1ccc(F)cn1)c1nc2cccc(Cl)c2c(=O)n1N1CCNCC1` [Compound 58, (S)-2-(1-((6-amino-5-((5-fluoropyridin-2-yl)ethynyl)pyrimidin-4-yl)amino)ethyl)-5-chloro-3-(piperazin-1-yl)quinazolin-4(3H)-one], for which the IC50 at PI3Kγ is above 10 µM; at PI3Kδ, 0.002 µM; at PI3Kβ, 0.01 µM.
On to `C[C@H](Nc1nc(N)nc(N)c1Cl)c1nc2cccc(Cl)c2c(=O)n1[C@H]1CCCNCC1` [Compound 12, 3-((S)-azepan-4-yl)-5-chloro-2-((S)-1-((2,6-diamino-5-chloropyrimidin-4-yl)amino)ethyl)quinazolin-4(3H)-one], for which the IC50 on PI3Kγ was above 10 µM; at PI3Kδ it was 0.056 µM; at PI3Kβ, 0.66 µM.
For `O=c1c2c(Cl)cccc2nc([C@@H](Nc2ncnn3ccnc23)C2CC2)n1N1CCNCC1` [Compound 43, (S)-5-chloro-2-(cyclopropyl(imidazo[2,1-f][1,2,4]triazin-4-ylamino)methyl)-3-(piperazin-1-yl)quinazolin-4(3H)-one] the same measures were above 10 µM, 0.004 µM and 0.03 µM.
For `C[C@H](Nc1nc(N)nc(N)c1C#N)c1nc2cccc(Cl)c2c(=O)n1N1CCN(Cc2ccccc2)CC1` [Compound 3, (S)-2,4-diamino-6-((1-(3-(4-benzylpiperazin-1-yl)-5-chloro-4-oxo-3,4-dihydroquinazolin-2-yl)ethyl)amino)pyrimidine-5-carbonitrile] the same measures were 0.58 µM, 0.012 µM and 0.008 µM.
For `C[C@H](Nc1nc(N)nc(N)c1C#N)c1nc2cccc(Cl)c2c(=O)n1N1CCN(CCOC(C)(C)C)CC1` [Compound 96, (S)-2,4-diamino-6-((1-(3-(4-(2-(tert-butoxy)ethyl)piperazin-1-yl)-5-chloro-4-oxo-3,4-dihydroquinazolin-2-yl)ethyl)amino)pyrimidine-5-carbonitrile] the same measures were 1 µM, 0.015 µM and 0.01 µM.
In the case of `C[C@H](Nc1ncnc(N)c1C#N)c1nc2cccc(Cl)c2c(=O)n1C1CCN(CC(F)(F)F)CC1` [Compound 103, (S)-4-amino-6-((1-(5-chloro-4-oxo-3-(1-(2,2,2-trifluoroethyl)piperidin-4-yl)-3,4-dihydroquinazolin-2-yl)ethyl)amino)pyrimidine-5-carbonitrile], the IC50 is above 10 µM on PI3Kγ, 0.01 µM at PI3Kδ and 2.2 µM on PI3Kβ.
On to `C[C@H](Nc1nc(N)nc(N)c1Cl)c1nc2c(F)ccc(Cl)c2c(=O)n1N1CCN(Cc2ccccc2)CC1` [Compound 117, (S)-3-(4-benzylpiperazin-1-yl)-5-chloro-2-(1-((2,6-diamino-5-chloropyrimidin-4-yl)amino)ethyl)-8-fluoroquinazolin-4(3H)-one], for which the IC50 was above 10 µM at PI3Kγ, 0.22 µM on PI3Kδ and 0.57 µM on PI3Kβ.
As for `CC(C)C[C@H](Nc1ncnc(N)c1C#N)c1nc2cccc(Cl)c2c(=O)n1N1CCNCC1` [Compound 74, (S)-4-amino-6-((1-(5-chloro-4-oxo-3-(piperazin-1-yl)-3,4-dihydroquinazolin-2-yl)-3-methylbutyl)amino)pyrimidine-5-carbonitrile], the IC50 on PI3Kγ is above 10 µM; at PI3Kδ, 0.032 µM; on PI3Kβ, 0.57 µM.
On to `C[C@H](Nc1nc(N)nc(N)c1C#N)c1nc2cccc(Cl)c2c(=O)n1-c1ccccc1` [Compound X, (S)-2,4-diamino-6-((1-(5-chloro-4-oxo-3-phenyl-3,4-dihydroquinazolin-2-yl)ethyl)amino)pyrimidine-5-carbonitrile, reference compound], for which the IC50 stood at 0.007 µM at PI3Kγ, 0.0002 µM on PI3Kδ and 0.011 µM at PI3Kβ. Also, the PI3Kγ/PI3Kβ ratio at PI3Kβ is on record as 0.6; at PI3Kβ (as stated in b147), “less than 1 fold”.

As usually defined, the IC50 is the concentration at which inhibition is half-maximal.
